Measured values: PMC6368574, “Probing the Inhibition of Microtubule Affinity Regulating Kinase 4 by N-Substituted Acridones” (Scientific Reports, 2019)

Legend:
recombinant MARK4 = molecular target: T1, recombinant MARK4 (Homo sapiens, UniProt Q96L34); assay: Isothermal titration calorimetry; type: binding; conditions: for Kd: read-out: Ka (converted); for ITC binding in words: at lower stoichiometry, at high concentration they precipitate with MARK4
T1 construct: made in house; host or cells: bacterial cells (Luria-Bertani broth, IPTG induction)
T1 sequence (Q96L34 1-752): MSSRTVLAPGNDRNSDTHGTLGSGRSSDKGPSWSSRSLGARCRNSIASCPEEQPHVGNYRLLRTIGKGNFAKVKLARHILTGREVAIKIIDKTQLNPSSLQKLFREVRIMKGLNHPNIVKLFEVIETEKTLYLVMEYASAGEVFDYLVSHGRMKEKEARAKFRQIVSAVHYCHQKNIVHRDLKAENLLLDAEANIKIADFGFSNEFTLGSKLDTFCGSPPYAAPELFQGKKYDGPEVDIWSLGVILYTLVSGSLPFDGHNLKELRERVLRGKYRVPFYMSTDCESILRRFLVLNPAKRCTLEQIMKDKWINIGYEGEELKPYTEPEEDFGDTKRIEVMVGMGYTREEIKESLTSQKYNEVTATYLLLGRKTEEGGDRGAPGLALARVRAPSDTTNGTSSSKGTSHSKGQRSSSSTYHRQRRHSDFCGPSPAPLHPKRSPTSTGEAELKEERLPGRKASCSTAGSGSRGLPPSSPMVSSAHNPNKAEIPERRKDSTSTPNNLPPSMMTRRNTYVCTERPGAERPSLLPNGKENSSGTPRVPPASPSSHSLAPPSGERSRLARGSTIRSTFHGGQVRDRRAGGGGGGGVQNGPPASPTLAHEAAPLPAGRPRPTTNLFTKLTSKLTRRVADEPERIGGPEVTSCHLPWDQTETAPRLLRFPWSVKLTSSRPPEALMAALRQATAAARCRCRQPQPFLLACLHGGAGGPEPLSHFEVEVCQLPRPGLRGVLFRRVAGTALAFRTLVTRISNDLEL
Description: In order to measure the actual binding affinity and stoichiometry of selected compounds with the recombinant MARK4, isothermal titration calorimetry (ITC) has been carried out. Negative heat impulses in the upper panel of each isotherm indicate exothermic nature of binding. The amount of heat produced as a result of each injection helps to deliver the molar ratio of studied compound to that of MARK4. Thermodynamic parameters associated with binding of MARK4-compounds (Ka, binding constant and ΔH, enthalpy change) are shown in Table 1.
Figure 5 ITC measurement showing the titration of selected acridone derivatives with recombinant MARK4. (Top) Raw data plot of heat produced against time for the titration of 1000–1500 µM (A) compound 7b, (B) compound 7d, (C) compound 7f, into 20–25 µM MARK4. (Bottom) Corresponding binding isotherm obtained after integration of peak area and normalization to yield a plot of molar enthalpy change against each compound-MARK4 ratio.
ITC experiments were performed on a VP-ITC microcalorimeter (MicroCal, Inc. GE, MicroCal, USA) by following our previously published protocols[41],[47]. For sample preparation, recombinant MARK4 was extensively dialyzed in 20 mM Tris buffer, pH 8.5 and the working solutions of acridone derivatives were prepared in last dialyzing buffer. The titration data so obtained was analyzed with the help of MicroCal Origin 7.0 software provided with the instrument. The thermodynamic parameters of binding such as association constant (Ka), stoichiometry of binding (n), and enthalpy change (ΔH) were determined by fitting the binding isotherm into the ‘one-set of sites’ binding model.

[1] = system: panel of kinases of CAMK family; assay: Single dose kinase inhibition profiling (ADP-Glo); type: biochemical; conditions: single dose of 10 µM
Description: The selectivity of kinase inhibitors is commonly evaluating them against a panel of closely related kinases based on the hypothesis that off-target interfaces are more likely to be associated with same/different families of kinases with similar amino acid sequence. So, we evaluated the fraction of kinase targets that are within the same kinase family (CAMK family). […] These kinase selectivity results signify the use of these compounds as potential and selective inhibitors towards MARK4.
Figure 7 Kinase selectivity and tau-phosphorylation assay. Kinase selectivity results of (A) compound 7b, (B) compound 7d, (C) compound 7f. The selected panel of kinases was incubated with 10 µM dose of selected compounds and analyzed for percent activity values. The percent kinase activity was calculated in the compound-containing reactions and plotted in terms of percent kinase activity inhibition. (D) Representative flow cytometry histogram of SH-SY5Y cell fractions stained with phosphorylated anti-tau antibodies, each histogram represents the phosphorylation status of tau under different treatments as mentioned in inset.
In vitro profiling of the twenty five members of CAMK family (CAMK-1 and CAMK-2) of kinases was performed with the help of kinase screening kit by following the manufacturer’s protocols (Promega, Madison, USA). Briefly, add desired concentration of each compound (10 µM) to corresponding well of 384-well assay plate. Consecutively, 2 µl of kinase working stock solution was added to each wells of assay plate. Gently mix the reaction mixture on a plate shaker for 2 minutes, centrifuge the assay plate to bring mixture of reagents to the bottom of the wells. Incubate the plate at room temperature (25 °C) for 10 minutes. […] After the completion of reaction, measure the luminescence using an integration time of 0.5 seconds per well. Using net luminescence of the no-compound control (negative control) reactions to represent 100% kinase activity, the percent kinase activity was calculated in the compound-containing reactions and plotted in terms of percent kinase activity inhibition.

Row | Kd (recombinant MARK4; from ITC, single-site fitting) [µM] | ITC binding in words (recombinant MARK4) | ΔH (recombinant MARK4; from ITC, single-site fitting) | Compound | within-family kinase selectivity [1]
1 | – | do not show significant binding | – | COc1ccccc1NC(=O)Cn1c2ccccc2c(=O)c2cc(C)ccc21 [Compound 7h, N-(2-methoxyphenyl)-2-(2-methyl-9-oxoacridin-10(9H)-yl)acetamide] | –
2 | 7.41 | – | −3.01 × 10^4 ± 590.10 cal/mol | Cc1ccc(NC(=O)Cn2c3ccccc3c(=O)c3cc(C)ccc32)cc1 [Compound 7f, 2-(2-Methyl-9-oxoacridin-10(9H)-yl)-N-(p-tolyl)acetamide] | more strongly inhibits MARK4 as compared to other kinases of same family

More lines, now with the values behind:

Row | Compound | Kd (recombinant MARK4; from ITC, single-site fitting) [µM] | ITC binding in words (recombinant MARK4) | ΔH (recombinant MARK4; from ITC, single-site fitting) | within-family kinase selectivity [1]
3 | COc1ccc(CNC(=O)Cn2c3ccccc3c(=O)c3cc(C)ccc32)cc1 [Compound 7d, N-(4-methoxybenzyl)-2-(2-methyl-9-oxoacridin-10(9H)-yl)acetamide] | 15.8 | – | – | more strongly inhibits MARK4 as compared to other kinases of same family
4 | COC(=O)Cn1c2ccccc2c(=O)c2cc(C)ccc21 [Compound 5, Methyl 2-(2-methyl-9-oxoacridin-10(9H)-yl)acetate] | – | do not show significant binding | – | –
5 | Cc1ccc2c(c1)c(=O)c1ccccc1n2CC(=O)NCc1ccccc1 [Compound 7b, N-benzyl-2-(2-methyl-9-oxoacridin-10(9H)-yl)acetamide] | 15.6 | – | – | more strongly inhibits MARK4 as compared to other kinases of same family
